“And” between values parts separate entries of the source, which are not always exact repeats. Identical values can stand only once.
Legend:
telomerase [1] = biological target: T1, telomerase (Homo sapiens, UniProt O14746); assay: Direct telomerase repeat addition assay with radiolabeled dNTPs: dNTP titration, repeat processivity R1/2; format: biochemical; set-up: made in house; anti-FLAG immunopurification, eluted with 3xFLAG peptide; conditions: for Processivity R 1/2: (TTAGGG)3 primer, remaining three natural dNTPs at cellular concentration
T1 sequence (O14746 whole entry): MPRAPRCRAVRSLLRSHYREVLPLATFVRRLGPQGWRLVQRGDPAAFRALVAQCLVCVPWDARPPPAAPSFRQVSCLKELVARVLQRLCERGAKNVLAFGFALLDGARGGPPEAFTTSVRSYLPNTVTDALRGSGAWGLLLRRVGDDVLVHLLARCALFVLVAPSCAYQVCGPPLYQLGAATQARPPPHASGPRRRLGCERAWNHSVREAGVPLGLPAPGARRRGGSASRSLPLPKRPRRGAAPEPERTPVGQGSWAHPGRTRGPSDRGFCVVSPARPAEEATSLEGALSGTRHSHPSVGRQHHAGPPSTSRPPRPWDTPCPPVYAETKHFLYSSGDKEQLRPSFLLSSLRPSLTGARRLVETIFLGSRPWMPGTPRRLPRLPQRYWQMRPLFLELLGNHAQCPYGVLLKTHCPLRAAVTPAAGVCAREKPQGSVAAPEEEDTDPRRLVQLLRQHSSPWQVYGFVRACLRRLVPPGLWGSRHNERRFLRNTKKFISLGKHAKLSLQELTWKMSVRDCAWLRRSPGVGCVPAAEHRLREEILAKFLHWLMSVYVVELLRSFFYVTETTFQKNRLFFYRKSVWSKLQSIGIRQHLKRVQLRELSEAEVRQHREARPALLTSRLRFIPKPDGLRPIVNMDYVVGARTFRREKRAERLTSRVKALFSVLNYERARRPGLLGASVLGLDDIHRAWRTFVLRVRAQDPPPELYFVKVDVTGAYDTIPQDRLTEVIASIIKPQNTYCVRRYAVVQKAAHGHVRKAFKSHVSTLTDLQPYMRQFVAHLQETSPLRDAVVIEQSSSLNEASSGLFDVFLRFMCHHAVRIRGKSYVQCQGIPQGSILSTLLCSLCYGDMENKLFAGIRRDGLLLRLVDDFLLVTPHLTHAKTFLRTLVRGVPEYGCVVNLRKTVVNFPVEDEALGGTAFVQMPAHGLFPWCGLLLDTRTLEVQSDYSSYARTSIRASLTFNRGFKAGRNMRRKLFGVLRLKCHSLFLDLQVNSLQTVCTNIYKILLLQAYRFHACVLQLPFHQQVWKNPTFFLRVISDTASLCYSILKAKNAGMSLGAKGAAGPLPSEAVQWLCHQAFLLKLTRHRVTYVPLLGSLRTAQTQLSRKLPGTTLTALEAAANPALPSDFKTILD
Method: This preparation, termed super telomerase, has kinetic properties similar to endogenous telomerase (Supplementary Fig. 1)[29]–[31]. […] Repeat processivity was measured using the convention of calculating the number of repeats synthesized before half of the DNA substrates dissociate from telomerase[33] (Supplementary Fig. 2). 8-oxo-dGTP served as a control since it is an established telomerase chain terminator[12].
Fig. 2 Oxidized and therapeutic dNTPs inhibit telomerase processivity. […] The loading control (*) was a ^32P-end labeled 18-mer oligonucleotide. Numbers on the left indicate the number of added repeats; letters on the right indicate template residue. Images are representative of three independent experiments.
The telomerase assay was as described. […] Reactions containing the modified dNTPs (Trilink Biotechnologies) substituted for their natural dNTP analog are indicated in the figure legends. The reactions were started by the addition of 3 μl (~35 fmol) of immunopurified telomerase eluent, incubated at 37 °C for 1 h, then terminated with 2 μl of […] EDTA and heat inactivated at 65 °C for 20 min. ^32P-end labeled 18-mer loading control (8 fmol) was added to the terminated reactions before purification with an Illustra Microspin G-25 column (GE Healthcare). An equal volume of loading buffer (94% formamide, 0.1× TBE, 0.1% bromophenol blue, 0.1% xylene cyanol) was added to the reaction eluent from the G-25 spin column. The samples were heat denatured for 10 min at 100 °C and loaded onto a 14% denaturing polyacrylamide gel (7 M urea, 1× TBE) and electrophoresed for 90 min at constant 38 W. Samples were imaged using a Typhoon phosphorimager (GE Healthcare).
The processivity was calculated as described[40],[67]. Repeat processivity from the direct telomerase extension assays was calculated as R1/2 (equivalent to the half-time for decay in an exponential time course), which represents the median length of DNA product formed, expressed in terms of number of telomere repeats. First, the total volume counts for each product band extend by one or more telomere repeats were obtained using Image Quant TL. The volume counts were then normalized by dividing by the number of radiolabeled guanosines incorporated into the extended products based on the number of repeats added, termed corrected volume (corr vol). The “percent left behind” (%LB) was calculated for each product band by summing the counts for that product band and for every product band below (shorter products), divided by the total counts for the lane, and then multiplied by 100. The natural log of (100−%LB) was calculated and then plotted vs. repeat number for each product length. A linear regression line was fit to the data to determine the slope of the line. The R1/2 value was calculated by dividing −ln(2) by the slope of each fitted line (R1/2 = −ln(2)/slope).
Number of Repeats Number of Repeats Number of Repeats Number of Repeats
Supplementary Fig 2.Telomerase dNTP titrations and processivity calculations. Telomerase reactions were conducted with (TTAGGG) 3 primer 1 and cellular-concentration dNTPs except that the […]
The loading control (LC) was a 32P-end labeled 18-mer. Numbers on the left indicate the number of added repeats. (d) Processivity was calculated as R1/2 (see Methods). (e) The natural log of (100-%LB) was plotted vs repeat number. A straight line was fit to the data and the R1/2 was calculated by dividing –ln(2) by the slope of each line. Plots shown from one experiment. Images ( a-c) and plots ( e) are representative of, and data are mean + s. d. (d) from, three independent experiments. Source data are provided as a Source Data file.
(1 picture or pasted object on this page, not shown here)

telomerase [2] = biological target: T1, telomerase; assay: Telomerase extension after insertion of modified dNTP (percent of product terminated at each template position); format: biochemical; set-up: made in house; anti-FLAG immunopurification, eluted with 3xFLAG peptide; conditions: for Percent of Total Product: Mean
Method: Direct telomerase assays were conducted with 5 nM ^32P-end labeled primer a and d Primer 3 (AGGGTT)3, b Primer 1 (TTAGGG)3, or c Primer 2 […]. […] Products were separated on denaturing gels. Letters on the y-axis of the graph indicate the template base; P indicates unextended 18-mer primer. Graphs represent percent of product terminated at each template position as a function of total products. Images are representative of, and data are the mean ± s.d. from, three independent experiments. Source data are provided as a Source Date file.
The reactions were started by the addition of 3 μl of immunopurified telomerase eluent, incubated at 37 °C for 1 h, then terminated with 2 μl of […] and heat inactivated at 65 °C for 20 min. An equal volume of loading buffer (94% formamide, 0.1× TBE, 0.1% bromophenol blue, 0.1% xylene cyanol) was added to the reaction eluent. The samples were heat denatured for 10 min at 100 °C and loaded onto a 14% denaturing acrylamide gel (7 M urea, 1× TBE) and electrophoresed for 90 min at constant 38 W. Samples were imaged using a Typhoon phosphorimager (GE Healthcare). Percent primer extension was calculated with ImageQuant TL 8.2 by measuring the intensity of each product band and dividing by the total radioactivity in the lane or total products, as indicated in the figure legends.

[3] = indicated dNTP at 0.5 μM, n1-n3

Compound: Nc1nc2c(ncn2C2CC(O)C(COP(=O)(O)OP(=O)(O)OP(=O)(O)O)O2)c(=S)[nH]1 (centres unmarked) [6-thio-dGTP]
- Processivity R 1/2 (telomerase [1]; indicated dNTP at 0.5 μM, Mean): 0
- Processivity R 1/2 (telomerase [1]; [3]): 0
- Processivity R 1/2 (telomerase [1]; indicated dNTP at 1 μM, Mean): 0
- Processivity R 1/2 (telomerase [1]; indicated dNTP at 1 μM, n1-n3): 0
- Processivity R 1/2 (telomerase [1]; indicated dNTP at 5 μM, Mean): 0
- Processivity R 1/2 (telomerase [1]; indicated dNTP at 5 μM, n1-n3): 0
- Processivity R 1/2 (telomerase [1]; indicated dNTP at 24 μM, Mean): 0
- Processivity R 1/2 (telomerase [1]; indicated dNTP at 24 μM, n1-n3): 0
- Extension after insertion of the modified dNTP (in words) (telomerase [2]; 50 μM each dNTP, analog substituted for natural dNTP): not a chain terminator
- Percent of Total Product (telomerase [2]; Fig 4b, Primer 1 (TTAGGG)3, 50 μM each dATP, dTTP and dGTP or 6-thio-dGTP, terminated at rA3): 11.46%
- Percent of Total Product (telomerase [2]; Fig 4b, Primer 1, 50 μM each dATP, dTTP and dGTP or 6-thio-dGTP, terminated at rA4): 5.50%
- Percent of Total Product (telomerase [2]; Fig 4b, Primer 1, 50 μM each dATP, dTTP and dGTP or 6-thio-dGTP, terminated at rC1): 37.27%
- Percent of Total Product (telomerase [2]; Fig 4b, Primer 1, 50 μM each dATP, dTTP and dGTP or 6-thio-dGTP, terminated at rC2): 6.46%
- Percent of Total Product (telomerase [2]; Fig 4b, Primer 1, 50 μM each dATP, dTTP and dGTP or 6-thio-dGTP, terminated at rC6): 34.87%
- Percent of Total Product (telomerase [2]; Fig 4b, Primer 1, 50 μM each dATP, dTTP and dGTP or 6-thio-dGTP, terminated at rU5): 3.92%
- Percent of Total Product (telomerase [2]; Fig 4c, Primer 2, 50 μM each dATP, dTTP and dGTP or 6-thio-dGTP, terminated at rA3): 49.91%
- Percent of Total Product (telomerase [2]; Fig 4c, Primer 2, 50 μM each dATP, dTTP and dGTP or 6-thio-dGTP, terminated at rA4): 4.12%
- Percent of Total Product (telomerase [2]; Fig 4c, Primer 2, 50 μM each dATP, dTTP and dGTP or 6-thio-dGTP, terminated at rC1): 23.36%
- Percent of Total Product (telomerase [2]; Fig 4c, Primer 2, 50 μM each dATP, dTTP and dGTP or 6-thio-dGTP, terminated at rC2): 22.82%
- Percent of Total Product (telomerase [2]; Fig 4c, Primer 2, 50 μM each dATP, dTTP and dGTP or 6-thio-dGTP, terminated at rC6): 8.70%
- Percent of Total Product (telomerase [2]; Fig 4c, Primer 2, 50 μM each dATP, dTTP and dGTP or 6-thio-dGTP, terminated at rU5): 0.81%
- Percent of Total Product (telomerase [2]; Fig 4d, Primer 3 (AGGGTT)3, 50 μM each dATP, dTTP and dGTP or 6-thio-dGTP, terminated at rU5): 4.61%
- Percent of Total Product (telomerase [2]; Fig 4d, Primer 3, 50 μM each dATP, dTTP and dGTP or 6-thio-dGTP, terminated at rA3): 1.16%
- Percent of Total Product (telomerase [2]; Fig 4d, Primer 3, 50 μM each dATP, dTTP and dGTP or 6-thio-dGTP, terminated at rC1): 49.66%
- Percent of Total Product (telomerase [2]; Fig 4d, Primer 3, 50 μM each dATP, dTTP and dGTP or 6-thio-dGTP, terminated at rC2): 7.38%
- Percent of Total Product (telomerase [2]; Fig 4d, Primer 3, 50 μM each dATP, dTTP and dGTP or 6-thio-dGTP, terminated at rC6): 37.00%

Compound: Nc1ncnc2c1ncn2C1CC(O)C(COP(=O)(O)OP(=O)(O)OP(=O)(O)O)O1 (centres unmarked) [dATP]
- YIntercept (line, best-fit value) of ln(100-%LB) vs # telomere repeats (telomerase [1]; 0.5μM titrated dNTP): 4.31 and 3.25 and 4.01
- YIntercept (line, best-fit value) of ln(100-%LB) vs # telomere repeats (telomerase [1]; 1μM titrated dNTP): 4.44 and 2.47 and 4.49
- ln(100-%LB) (telomerase [1]; 1μM titrated dNTP, telomere repeat 3): 2.47 and 1.35 and 2.09
- YIntercept (line, best-fit value) of ln(100-%LB) vs # telomere repeats (telomerase [1]; 5μM titrated dNTP): 4.00 and 3.98 and 2.64
- ln(100-%LB) (telomerase [1]; 5μM titrated dNTP, telomere repeat 1): 3.97 and 2.20
- ln(100-%LB) (telomerase [1]; 5μM titrated dNTP, telomere repeat 2): 3.54 and 1.95
- ln(100-%LB) (telomerase [1]; 5μM titrated dNTP, telomere repeat 3): 3.04 and 3.01 and 1.68
- YIntercept (line, best-fit value) of ln(100-%LB) vs # telomere repeats (telomerase [1]; 25μM titrated dNTP): 3.73 and 2.10
- ln(100-%LB) (telomerase [1]; 25μM titrated dNTP, telomere repeat 1): 3.90 and 2.05
- Processivity R 1/2 (telomerase [1]; indicated dNTP at 0.5 μM, Mean): 1.28
- Processivity R 1/2 (telomerase [1]; [3]): 0.99 and 1.34 and 1.51
- Processivity R 1/2 (telomerase [1]; indicated dNTP at 1 μM, Mean): 1.47
- Processivity R 1/2 (telomerase [1]; indicated dNTP at 1 μM, n1-n3): 1.33 and 1.42 and 1.67
- Processivity R 1/2 (telomerase [1]; indicated dNTP at 5 μM, Mean): 2.10
- Processivity R 1/2 (telomerase [1]; indicated dNTP at 5 μM, n1-n3): 1.66 and 2.20 and 2.43
- Processivity R 1/2 (telomerase [1]; indicated dNTP at 24 μM, Mean): 2.21
- Processivity R 1/2 (telomerase [1]; indicated dNTP at 24 μM, n1-n3): 1.90 and 2.36 and 2.37
- Percent of Total Product (telomerase [2]; Fig 4a, Primer 3, 50 μM each dTTP, dGTP and dATP or 2-OH-dATP, terminated at rA3): 2.35%
- Percent of Total Product (telomerase [2]; Fig 4a, Primer 3, 50 μM each dTTP, dGTP and dATP or 2-OH-dATP, terminated at rA4): 1.56%
- Percent of Total Product (telomerase [2]; Fig 4a, Primer 3, 50 μM each dTTP, dGTP and dATP or 2-OH-dATP, terminated at rC1): 1.47%
- Percent of Total Product (telomerase [2]; Fig 4a, Primer 3, 50 μM each dTTP, dGTP and dATP or 2-OH-dATP, terminated at rC2): 0.77%
- Percent of Total Product (telomerase [2]; Fig 4a, Primer 3, 50 μM each dTTP, dGTP and dATP or 2-OH-dATP, terminated at rC6): 8.96%
- Percent of Total Product (telomerase [2]; Fig 4a, Primer 3, 50 μM each dTTP, dGTP and dATP or 2-OH-dATP, terminated at rU5 (first)): 4.92%
- Percent of Total Product (telomerase [2]; Fig 4a, Primer 3, 50 μM each dTTP, dGTP and dATP or 2-OH-dATP, terminated at rU5 (second, after translocation)): 0.73%
